Laboratory results as given in paper PMC10072326, “Promising anticancer agents based on 8-hydroxyquinoline hydrazone copper(II) complexes” (Frontiers in Chemistry, 2023).

Assays:
S. aureus MRSA 272123 = experiment: MIC determination; type: cell-based, Staphylococcus aureus; conditions: 18 h
plasmid DNA (H2B-GFP) = experiment: Agarose gel electrophoresis of plasmid DNA (DNA migration assay); type: biochemical; conditions: 200 and 400 μM; overnight; room temperature
Procedure: The nature of the interaction between the complexes and pure plasmid DNA was evaluated by agarose gel electrophoresis as described previously with minor modifications (21). Briefly, free ligands, copper complexes, and cisplatin (200 and 400 μM; in 20 μL total volume) were incubated overnight at room temperature with plasmid DNA (200 ng, H2B-GFP, Addgene #11680). NaN3 (final: 37.5 mM in ddH2O) was used as a ROS scavenger. Samples were run on a 1% agarose gel (100 V, 60 min). The experiments were carried out with two biological replicates, and ImageJ software was used to quantify and analyse the intensity of the bands.
In addition to thermal denaturation, we performed a cell-free DNA binding assays followed by gel electrophoresis to further investigate the nature of the interaction between the complexes and DNA. The assay relies on the fact that the relative amount of the supercoiled form of plasmid DNA will change upon the occurrence of nicks since the relaxed form migrates slower and can be easily detected on the gel. […] The ligands had little to no effect on DNA migration except L^7 (Fig. S24A). However, incubation of plasmid DNA with complexes 1 - 8 confirmed binding to DNA and changed the supercoiling status by increasing the nicked circular form (Fig. S24). […] To understand whether the induction of DNA nicks requires ROS, the samples were pre-incubated with a ROS scavenger, NaN3. […]

[1] = Thermodynamic solubility at pH 7.4; type: physicochemical; conditions: Cu(II) complexes; pH 7.40; 20 mM HEPES; 25.0°C
Procedure: Thermodynamic solubility (S) was measured for the new ligands, L^7 and L^8, since data for the rest of the series was previously reported (9), and for selected Cu(II) complexes: 1, 5 and 6. Solubility was measured for the saturated solutions in water at pH 7.40 in 20 mM HEPES at 25.0 ± 0.1 °C. The concentration was determined by UV-Vis spectrophotometry using the stock solutions of the compounds with known concentrations dissolved in 100% DMSO, 50% and 25% (v/v) DMSO/buffered aqueous solutions for the calibration.

SMILES | MIC (S. aureus MRSA 272123) [µM] | effect on plasmid DNA migration / nicking (plasmid DNA (H2B-GFP)) | thermodynamic solubility S 7.4 [1] [µM]
CC(=O)[O-].O=C(NN=Cc1ccc2cccc([O-])c2n1)c1ccccc1.[Cu+2] [Complex 1, [Cu(HL^1)(AcO)]] | 50 | highest nicking efficiency | –
[Cu+2].[O-]C(=NN=Cc1ccc2cccc([O-])c2n1)c1ccc(F)cc1 [Complex 3, [Cu(L^3)]3] | – | – | < 1
